# Results: US20240166637A1, “COMPOUNDS AND METHODS FOR TREATING MALARIA” (Microbiotix, Inc., priority 2021, published 2024)
# Like-named read-outs stand apart in the source and are kept apart here.
# What was measured:
# [1] = Protein binding in mouse serum by equilibrium dialysis; format: in vitro ADME
# [2] = Solubility by nephelometric method; format: physicochemical
# Protocol: The solubility of the inhibitor compounds was determined by the nephelometric method (Bevan, C., and R. Lloyd, supra (2000)). A high-throughput screening method for the determination of aqueous drug solubility using laser nephelometry in microtiter plates. The compounds were serially diluted in DMSO and then added to water. […] Additionally, to confirm the nephelometry results, compounds were stirred with a test vehicle (deionized water, PBS, or D5W) at 20° C. for 4 hours. Additional compound was added if complete dissolution was obtained. The mixture was then filtered and the filtrate assayed by HPLC to quantify the amount of compound in solution (Solubility).
# P. falciparum = assay: In vitro parasite growth inhibition in PGIM (SYBR Green I); format: cell-based
# Protocol: P. falciparum laboratory lines were propagated at the asexual stage with standard methods, in RPMI 1640 medium supplemented with 25 mM HEPES, 31 mM NaHCO3, 0.37 mM hypoxanthine, 10 μg/ml gentamicin, and 10% pooled human serum. Nutrient deprivation experiments utilized standard PSAC Growth Inhibition Medium (PGIM) but with reduced concentrations of individual ingredients. Human serum was exhaustively dialyzed against distilled water before addition to those media. The PGIM contained reduced concentrations of isoleucine (11.4 μM), glutamine (102 μM), and hypoxanthine (3.01 μM) and was supplemented with the dialyzed human serum. Growth inhibition experiments (Burrows et al., Parasitology, 141:128-139 (2013)) were quantified by using a SYBR Green I-based fluorescence assay for parasite nucleic acid in 96-well microplates, as described previously (Dondorp et al., supra (2009)). Ring-stage synchronized cultures were seeded at 1% parasitemia and 2% hematocrit levels in standard medium or PGIM and were maintained for 72 hr at 37° C. in 5% O2/5% CO2 in nitrogen, without medium changes. Cultures were then lysed in 20 mM Tris, 10 mM EDTA, 0.016% saponin, 1.6% Triton X-100, pH 7.5, with SYBR Green I nucleic acid gel stain (Invitrogen, Carlsbad, CA) at 5000-fold dilution.
# After a […] incubation, parasite DNA contents were quantified through fluorescence measurements (excitation, 485 nm; emission, 528 nm). Results were presented as IC50 values, defined as the concentration of inhibitor which decreases P. falciparum (Pf) DNA content by 50% (IC50 PGIM).
# Serum stability (MSS) = format: in vitro ADME; conditions: mouse serum exposure; for MSS % consumed: after 60 minutes
# Text: The microsome and serum stability assays measure the stability of the inhibitor compounds when exposed to the liver and to serum in vivo. For serum stability, inhibitor compounds were exposed to 55% mouse serum and the resulting samples analyzed by LC/MS to quantitate the remaining parent. […]
# PSAC = assay: Transport inhibition assay: PSAC block by osmotic lysis of infected cells in sorbitol (transmittance); format: cell-based, P. falciparum; conditions: for PSAC K0.5: Table 6
# Protocol: Transport experiments were conducted to examine the affinity of the inhibitor compounds for PSAC. Inhibitor affinity for blocking PSAC was determined using a quantitative transmittance assay which is based on the osmotic lysis of infected cells with sorbitol (Desai, S., and A. Pillai, U.S. Pat. No. 8,618,090, supra (2013); Dondorp et al., supra (2009); Hooft van Huijsduijnen, R., and T. N. Wells, supra (2018)). Malaria parasite cultures were enriched at the trophozoite stage via the Percoll-sorbitol method (Pillai et al., Mol. Pharmacol., 82:1104-1114 (2012); Pillai et al., Mol. Pharmacol., 77:724-733 (2010); Wagner et al., Biophys. J., 84:116-123 (2003)), washed, and resuspended at 37° C. and 0.15% hematocrit in 280 mM sorbitol, 20 mM Na-HEPES, 0.1 mg/ml bovine serum albumin, pH 7.4, with the indicated concentrations of inhibitor compounds. Osmotic lysis, resulting from PSAC-mediated sorbitol uptake, was continuously tracked with transmittance measurements through the cell suspension (700-nm wavelength, DU640 spectrophotometer with Peltier temperature control; Beckman Coulter, Fullerton, CA).
# Inhibitor dose-response relationships (K0.5 values) were calculated from the times required to reach a fractional lysis threshold. K0.5 estimates obtained with the osmotic lysis assay match those obtained using cell-attached and whole-cell patch-clamp assays (Alkhalil et al., Blood, 104:4279-4286 (2004); Dondorp et al., N. Engl. J. Med., 361:455-467 (2009)), confirming a quantitatively robust and valid assay.
# [3] = Microsome stability (MLMS); format: in vitro ADME, mouse; conditions: murine liver microsomes; for MLMS % consumed: after 30 min.
# Protocol: The microsome and serum stability assays measure the stability of the inhibitor compounds when exposed to the liver and to serum in vivo. For microsomal stability measurements, inhibitor compounds were incubated with mouse microsomal proteins in buffer with NADPH (Bevan, C. and R. Lloyd, Anal. Chem., 72:1781-1787 (2000)) and the resulting samples were analyzed by LC/MS to quantitate the remaining parent. The data are calculated as percent of parent remaining.
# CYP3A4 = CYP3A4 (Homo sapiens, UniProt P08684); assay: Cytochrome P450 inhibition, fluorogenic substrate assay; format: in vitro ADME
# Text: To measure Cytochrome P450 inhibition, a fluorogenic substrate assay was used to measure inhibitor compound interference with enzymes that metabolize drugs in vivo (Houston, J., Biochem. Pharmacol., 47:1469-1479 (1994)).
# Caco-2 permeability = format: in vitro ADME; conditions: human, Caco-2; read-out: Papp, Caco-2 cell monolayer
# Protocol: (§1) The Caco-2 assay is an indicator of the potential oral bioavailability of the inhibitor compound. Caco-2 cells were applied to wells of a collagen-coated BioCoat Cell Environment (BD Biosciences) plate as described (Duraisingh, M., and A. Cowman, Acta Trop., 94:181-190 (2005)). The test agent was added to the apical (A) side and the amount of permeation was determined on the basolateral (B) side by LC/MS/MS analysis. The amount of material on the A and B sides were used to calculate a Papp value (Caco-2 Papp).
# [4] = Mammalian cytotoxicity, HeLa cells, 72 hr, MTS; format: cell-based, human; conditions: human, HeLa cells; for CC50 at 72 h: 3 days
# Protocol: (§2) Cytotoxicity of the inhibitor compounds was quantified using human HeLa cells (CLL-2; American Type Culture Collection, Manassas, VA) seeded at 4000 cells/well in 96-well plates. Cultures were incubated with individual inhibitor compounds for 72 hr at 37° C. in minimal essential medium (Invitrogen) supplemented with 10% fetal calf serum.
# human HeLa cells = assay: Mammalian cytotoxicity, HeLa cells, 72 hr, MTS; format: cell-based
# Protocol: as §2
# CD-1 mice = assay: Murine tolerability; conditions: not dose-related, considered formulation-related
# Protocol: Tolerability. The test compounds were dissolved at concentrations of 1 to 10 mg/mL in various formulations (5% DMSO, 5% cremophor, 80% PEG-300 or 10% DMSO, 80% PEG-400, 1% Polysorbate 80). Male CD-1 mice were dosed with 4 dose levels of each test compound (vehicle control plus 3 dose levels ranging from 10-200 mg/kg as described in Table 8) of test compound by the intravenous (IV), intraperitoneal (IP) or oral (PO) route. Clinical observations described in Table 8 were made at various time points out to 24 hours after which mice were humanely euthanized.
# Animals were monitored for 24 hours for signs of toxicity.
# Caco-2 cells = assay: Caco-2 permeability; format: in vitro ADME; conditions: apical to basolateral
# Protocol: as §1
# [5] = system: P. falciparum Pf3D70087/N9; assay: Murine efficacy, humanized NSG mouse model infected with P. falciparum; format: in vivo
# Protocol: (§3) Tolerability. […] Pharmacokinetics (PK). […] PK parameters were calculated using the WinNonLin program. Efficacy.
# In a second study, NSG mice were treated with either 25 mg/kg or 50 mg/kg of MBX 4055 either once or twice daily for 4 days by the oral route. […] Percent parasitemia was measured daily for 5 days as were the plasma levels of MBX 3318 and 4055.
# Humanized NSG mice infected with P. falciparum were treated with 100 mg/kg of MBX 3318 twice daily for 4 days by the PO route. Control mice were treated with vehicle alone (10% DMSO, 80% PEG400, 1% Polysorbate 80). […] During the assay, blood samples were taken from mice treated with MBX 3318 to measure the levels of compound (FIG. 2B).
# The murine model was also employed against MBX 4055. Humanized NSG mice infected with P. falciparum were treated with 25 or 50 mg/kg of MBX 4055 twice daily or 50 mg/kg once daily, for 4 days by the PO route. […] Unfortunately, the remaining mice that were dosed twice daily, including the vehicle-only mouse died within 2-5 days due to the apparent toxicity of the Labrasol-containing vehicle. During the assay, blood samples were taken from mice treated with MBX 4055 to measure the levels of compound (FIG. 3B).
# [6] = mouse, in vivo
# Protocol: as §3
# [7] = mouse serum, equilibrium dialysis
# Sequence of CYP3A4 (P08684 whole entry, species assumed): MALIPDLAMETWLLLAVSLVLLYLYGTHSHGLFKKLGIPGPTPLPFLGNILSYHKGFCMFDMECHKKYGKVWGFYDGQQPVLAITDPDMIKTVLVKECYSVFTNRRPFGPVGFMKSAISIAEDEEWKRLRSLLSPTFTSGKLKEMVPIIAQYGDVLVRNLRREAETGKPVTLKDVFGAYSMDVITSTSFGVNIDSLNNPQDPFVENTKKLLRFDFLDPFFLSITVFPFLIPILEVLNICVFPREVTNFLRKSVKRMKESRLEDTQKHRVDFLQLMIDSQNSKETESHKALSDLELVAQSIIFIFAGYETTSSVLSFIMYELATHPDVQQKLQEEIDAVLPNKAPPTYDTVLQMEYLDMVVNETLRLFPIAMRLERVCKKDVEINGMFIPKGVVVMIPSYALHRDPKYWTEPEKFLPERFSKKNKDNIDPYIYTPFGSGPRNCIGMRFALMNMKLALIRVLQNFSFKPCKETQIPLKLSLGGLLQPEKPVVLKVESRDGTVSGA
structure (smiles),measurement,setting,value
"Cc1ccc(C)c(N2CCN(S(=O)(=O)c3ccc(-c4ccc(=O)[nH]n4)s3)CC2)c1 [ISG-21, reference compound]",binding by serum proteins,[1],highly bound by serum proteins
same,Mouse PB % bound,[1]; [7],100 % bound
same,fraction unbound,"[1]; mouse serum, equilibrium dialysis, Table 4, read-out: PPB, percent protein bound",0.001
same,solubility,"[2]; water, kinetic from dmso stock, H2O, Table 4, read-out: Sol., solubility limit in H2O",25 µM
same,IC50,"P. falciparum; Plasmodium falciparum, Pf growth inhibition in PGIM, 72 hr, read-out: IC50 PGIM",2 nM
same,IC50,"P. falciparum; Plasmodium falciparum, Table 3, read-out: IC50, Pf growth inhibition in PGIM",2 nM
same,MSS (% cons),"Serum stability (MSS); % consumed after 60 minutes, Table 4",0 % cons
same,MSS % consumed,Serum stability (MSS),0 % consumed
same,"K0.5, activity in the PSAC assay",PSAC; Table 3,0.003 µM
same,PSAC K0.5,PSAC,0.003 µM
same,MLMS (% cons),"[3]; % consumed after 30 min., Table 4",17 % cons
same,MLMS % consumed,[3],17 % consumed
same,Cyp 3A4 % inhib. at 5 μM,CYP3A4,0 % inhib.
same,inhibition at 5 µM,"CYP3A4; human, Table 4, read-out: Cyp 3A4 % Inhib",0%
same,Papp A→B,Caco-2 permeability,< 0.5 ×10⁻⁶ cm/s
same,CC50 at 72 h,"[4]; Table 3, read-out: CC50, cytotoxicity against HeLa cells",86000 nM
same,selectivity ratio at 72 h,[4]; HeLa CC50 divided by growth inhibition IC50,37000
same,SI CC50/PSAC K0.5,human HeLa cells; HeLa CC50 / PSAC K0.5,"28,700"
N#Cc1ccncc1N1CCN(C(=O)c2ccc(C(=O)N3CCCC3)s2)CC1 [MBX-4075],PSAC K0.5,PSAC,1.08 µM
same,CC50,human HeLa cells,> 200000 nM
same,SI CC50/PSAC K0.5,human HeLa cells,>185
"N#Cc1cccnc1N1CCN(S(=O)(=O)c2ccc(-c3ccc(=O)[nH]n3)s2)CC1 [MBX-2997, 2-(4-((5-(6-oxo-1,6-dihydropyridazin-3-yl)thiophen-2-yl)sulfonyl)piperazin-1-yl)nicotinonitrile]",solubility,"[2]; water, kinetic from dmso stock, solubility limit in H2O, read-out: Solubility",25 µM
same,IC50,"P. falciparum; Plasmodium falciparum, 72 h, read-out: IC50 PGIM",38 nM
same,PSAC K0.5,PSAC,0.007 µM
same,CC50 at 72 h,"[4]; Table 6, read-out: HeLa CC50",> 200000 nM
same,SI CC50/PSAC K0.5,human HeLa cells; HeLa CC50 / PSAC K0.5,">28,500"
Cc1nccnc1N1CCN(S(=O)(=O)c2ccc(-c3ccc(=O)[nH]n3)s2)CC1 [MBX-4055],Mouse PB % bound,[1]; [7],94 % bound
same,solubility,"[2]; solubility limit in H2O, read-out: Solubility",25 µM
same,"signs of toxicity, PO dosing",CD-1 mice,some slight lethargy
same,IC50,"P. falciparum; Pf growth inhibition in PGIM, 72 hr, read-out: IC50 PGIM",42 nM
same,MSS % consumed,Serum stability (MSS),5 % consumed
same,PSAC K0.5,PSAC,0.021 µM
same,MLMS % consumed,[3],47 % consumed
same,Cyp 3A4 % inhib. at 5 μM,CYP3A4,0 % inhib.
same,Caco-2 Papp,Caco-2 cells,7.8 ×10⁻⁶ cm/s
same,CC50,"human HeLa cells; 3 days, Table 6, read-out: HeLa CC50",> 200000 nM
same,SI CC50/PSAC K0.5,human HeLa cells; HeLa CC50 / PSAC K0.5,">9,524"
same,reduction of parasite growth with respect to control mice,"[5]; humanized NSG mouse, 50 mg/kg once daily for 4 days, PO",over 90%
same,blood levels of compound compared with IC50 in vitro,"[5]; infected NSG mice treated with MBX 4055 PO, FIG. 3B",well above the IC50 in vitro
same,% F (oral bioavailability),[6],66%
same,"half-lives (FIG. 1, clearance rates)",[6],favorable half-lives
same,AUClast,"[6]; iv, 10 mg/kg","34,275 hr*ng/mL"
same,Clearance,"[6]; iv, 10 mg/kg",6.53 mL/min/kg
same,Half-life,"[6]; iv, 10 mg/kg",1.39 h
same,Mean residence time,"[6]; iv, 10 mg/kg",1.35 h
same,VD,"[6]; iv, 10 mg/kg",0.786 L/kg
same,increase in normalized exposure relative to MBX 3318,[6]; po,> 30 fold
same,AUClast,"[6]; po, 30 mg/kg","67,501 hr*ng/mL"
same,Cmax,"[6]; po, 30 mg/kg","11,733 ng/mL"
same,Half-life,"[6]; po, 30 mg/kg",2.27 h
same,Normalized AUC,"[6]; po, 30 mg/kg","22,500"
same,Tmax,"[6]; po, 30 mg/kg",1 h
